Patent US9513294B2, “Megastokes amino-triazolyl-BODIPY compounds and applications to live neuron staining and human serum albumin FA1 drug site probing” (National University of Singapore, priority 2012, dated 2016)

What was measured:
live neurons = test: Live cell compound staining and immunostaining of mixed primary neural cell cultures; type: cell-based, mouse; details: 500 nM, brain cell preparations from P1-P3 mice
Method: Cells were stained with 500 nM of MKHA101-3 (Green) and imaged at 10× magnification before fixing with 4% PFA. They were then permeabilized with 0.1% Triton-X and immunostained with GFAP (Red) and neurons (Green).
Cells were stained with 500 nM of NeuO (Green) and imaged at 10× magnification before fixing with 4% PFA. They were then permeabilized with 0.1% Triton-X and immunostained with β-III-tubulin (Tuji, Yellow), GFAP (Red) and O4).
Using the heterogeneous brain cell preparations from P1-P3 mice, cells that were compound positive were also found to be β-III-tubulin positive (FIG. 17).
Using the heterogeneous brain cell preparations from P1-P3 mice, cells that were compound positive were also found to be β-III-tubulin (Tuji) positive (FIG. 18a). […] NeuO appears to stain all neurons regardless of subtype (FIG. 18b).

[1] = Quantum yield measurements versus Acridine Yellow in EtOH; type: physicochemical; details: MKHA compounds; quantum yield
In short: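 Fluorescence quantum yield is relative to Acridine Yellow in EtOH (Φ 0.47), with excitation at 460 nm. Integrated emission at 510–700 nm was corrected for absorbance at the excitation wavelength and for solvent refractive index.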

primary neurons [2] = test: Primary brain cell screening platform (neurons, astrocytes, microglia); type: cell-based; details: 500 nM, 1 hour
From the text: Esterification to MKAA (and possibly other esters) improves permeability into intact live cells while maintaining staining specificity (FIG. 12). The acetylated MKAA undergoes rapid hydrolysis by cellular esterases after crossing the live cell membrane generates the active MKHA compound responsible for the fluorescence response. FIGS. 13 and 14 show the structures of example MKHA compounds that have been synthesized and tested for primary neuron staining.
For neuron probe discovery, a primary brain cell screening platform was utilized, which involved the use of primary neurons, astrocytes and microglia isolated by differential adhesion methods. These cells were prepared alongside one another in 384-well microplates and incubated in duplicate with 5,000 DOFL compounds at 500 nM concentrations for 1 hour at 4-5 days post-isolation (FIG. 15). […] The compound MKHA374-48 is alternately referred to herein as NeuO (pronounced “neo”) for Neuron Orange.

[3] = system: mixed primary neural cell populations; test: Flow cytometry analysis and FACS sorting of mixed primary neural cells; type: cell-based, mouse
From the text: Unstained controls are shown in each spectrum from about 0 to about 1 G.
To further analyze this population of compound positive cells, the two populations (Bright and Dim) were sorted out cell re-culture and RNA extraction for gene analysis.

neurons = test: Time lapse imaging of in vitro neuronal development; type: cell-based, mouse; details: 500 nM
From the text: The survival of the cells and dye signal is critical in time lapse studies to analyze neuronal development and interaction with other neural cells.

primary neurons [4] = test: Neuron viability, MTS cell cytotoxicity assay (Promega); type: cell-based, mouse; details: 24 hour incubation, 500 nM or higher
Method: Primary neurons were isolated from P1-3 mouse pups by preferential adherence to poly-D-lysine coating. They were left to mature for 5 days before addition of compound at the stipulated concentrations for 24 h. The MTS assay (Promega) was used to assess viability according to manufacturer's instructions.
For long term tracking and downstream functional studies, it is critical that the compound is not cytotoxic towards the cells and that cells remain viable after staining.

[5] = Absorbance and fluorescence emission spectra (SpectraMax M2); type: physicochemical
In short: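 Absorbance and emission maxima measured on a SpectraMax M2 spectrophotometer, which also gave quantum yield data; analysis in GraphPrism.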

Compound: CCCc1cn(C2=[N+]3C(=C(c4ccc(NC(=O)CO)cc4)c4ccc(NCc5ccccc5)n4[B-]3(F)F)C=C2)nn1 [MKHA374-48, 7-(benzylamino)-5,5-difluoro-10-(4-(2-hydroxyacetamido)phenyl)-3-(4-propyl-1H-1,2,3-triazol-1-yl)-5H-dipyrrolo[1,2-c:2′,1′-][1,3,2]diazaborinin-4-ium-5-uide]
- staining specificity for neurons over other neural cells (live neurons): stains the cell bodies and dendrites specifically over other neural cells
- φ (%) [1]: 0.3684%
- fluorescence response / selectivity towards primary neurons in screening (primary neurons [2]): superior selectivity towards live neurons compared to the original MKHA101-3
- flow cytometry profile of stained mixed neural cell populations [3]: neuronal population segregating from the main population
- time lapse imaging of stained neurons (neurons): Bright NeuO stained neurons can be seen migrating from the interior of the sphere
- effect on cell viability (primary neurons [4]): did not affect cell viability significantly
- absorbance λmax ([5]; FIG. 2 normalized spectra): 468 nm
- emission λmax ([5]; FIG. 2 normalized spectra): 557 nm
- λmax Absorp. (nm) ([5]; MKHA compounds, absorbance maximum): 468 nm
- λmax Emission (nm) ([5]; MKHA compounds, fluorescence emission maximum): 557 nm
